Test results published in patent US20240209028A1, “CNP COMPOUNDS” (priority 2022, published 2024).
Starred links: 1 amine or outer side, 2 acyl side, 3 side chain; linkers in the order of their positions; H or OH if unused. Positions of bridges follow the written chain, without caps; N, C: chain ends. Residues, ends and D or L forms follow the SMILES beside them. *: point of attachment. C18 diacid = O=C(O)CCCCCCCCCCCCCCCCC(=O)*; γGlu = O=C(O)[C@H](CCC(=O)[*:2])N[*:1]; AEEA = NCCOCCOCC(=O)O

Assays:
[1] = PK after i.v. and s.c. administration to Göttingen minipig; details: female, Göttingen, minipig, in vivo
Method: (§1) The purpose of this study was to investigate pharmacokinetic and pharmacodynamic properties after intravenous (i.v.) and subcutaneous (s.c.) administration to Gottingen Minipig and domestic LYD pig, and to estimate bioavailability after s.c. dosing. Quantitative plasma analysis of CNP and cGMP levels were performed as described in
(§2) Animals and dosing: The pharmacokinetic and pharmacodynamic studies in Gottingen Minipig or domestic LYD pig were conducted at CRO Minerva Imaging or Novo Nordisk A/S, respectively. CNP compounds were dosed to normal female 1) Gottingen minipigs 6-12 months of age with an average weight of 22 kg or 2) domestic LYD pigs 4-5 months of age with and average weight of 80 kg. At least one week prior to dosing, permanent central venous catheters were implanted for blood sampling and intravenous (i.v.) dosing. For subcutaneous (s.c.) dosing, the pigs were ultrasound scanned and the optimal injection area laterally on the neck marked by a permanent tattoo. An insulin pen (NovoPen Echo or NovoPen 4) and insulin needle (NovoFine 32G/4 mm or NovoTwist 32G/5 mm) were used for accurate deposition of the CNP formulations in the subcutaneous fat tissue with the needle perpendicular to the skin.
(§3) CNP compounds were formulated according to the principles in General Methods of Preparation—Method G and were either A) 8 mM sodium phosphate, 250 mM glycerol, pH 6.5, B) 5 mM sodium acetate, 250 mM glycerol, pH 4.0, C) 5 mM sodium acetate, 240 mM propylene glycol, pH=4.0, D) 8 mM sodium phosphate, 250 mM glycerol, pH 7.5 or E) 20 mM sodium phosphate, 223 mM propylene glycol, pH 6.0.
(§4) Intravenously, the CNP compounds were dosed at 30-60 nmol/kg to Minipig and 15-43 nmol/kg to domestic pig using formulations A-E. Subcutaneously, the CNP compounds were dosed at 55-62 nmol/kg to Minipig and 20-30 nmol/kg to domestic pig using formulations A-D.
(§5) Sampling: Blood samples of approximately 1 mL were collected pre dose and up to 14 days post dose into EDTA-coated tubes (8 mM) for cGMP and CNP compound analysis by LC-MS. In few instances, cGMP was only analysed up to 48 hours post dose after intravenous dosing in domestic LYD pig. The blood samples were kept on wet ice for maximum 30 minutes until centrifugation for 10 minutes at 4° C. and minimum 1500G, and the plasma samples were stored at −20° C. until analysis.
(§6) Plasma concentration-time profiles were analyzed by non-compartmental PK analysis using Phoenix WinNonlin 8.1, Pharsight Inc., Mountain View, CA, USA. Calculation of the area under the plasma concentration-time curve (AUC) was based on the “linear up log down” method, and uniform weighting was used for estimation of the terminal rate constant (λz). S.c. bioavailability (F) was calculated as the dose-normalized AUC (AUC/dose) after s.c. administration divided by the AUC/dose after i.v. administration. […]

[2] = PK after i.v. and s.c. administration to domestic LYD pig; details: female, pig, in vivo; for bioavailability: LYD (domestic); for clearance / half-life: LYD
Method: as §1, §2, §3, §4, §5, §6

[3] = Local tolerance of CNP compounds in rats (s.c. injection, histopathology); assay type: in vivo, Sprague Dawley rat; details: rat, s.c. 350 μl, about 1000 nmol/ml, 5 days post injection
Method: The purpose of this study was to evaluate the local tissue reaction to subcutaneous injection of CNP compounds in rats.
Procedure: The CNP compounds were formulated according to the principles described in General Methods of Preparation-Method G. Each Sprague Dawley rat (male, 10-11 weeks of age at arrival, Janvier, France) was dosed s.c. with 250 or 350 uL of the same compound (formulation concentration of 1000 nmol/mL) 120 h prior to tissue collection resulting in a total of two injections for each animal (Table 15). Injection site (flank or neck) was alternated across animals within each group and time point.
Animals had access to tap water and food (Altromin 1324) ad libitum. Group size was n=3 for vehicles and positive control, and n=4 for test compounds. Vehicles and compounds were formulated in either 5 mM sodium acetate, 250 mM glycerol, pH 4.0 or 8 mM sodium phosphate, 250 mM glycerol, pH 7.4 as shown in Table 16.
The animals were anesthetized with isoflurane. Via an electric shaving machine, a squared area of fur (2 cm×2 cm) was removed either from the rats' neck or flank area). For dosing, a new injection needle (25G canula, 1 ml syringe) was placed in the middle of the square border closest to the animal's head and the needle was inserted into the skin from the border towards the center of the square. […] On the day of tissue collection, the rats were deeply anaesthetized with isoflurane and euthanized by exsanguination. The injection sites were inspected and scored with regards to pathological lesions. The injection sites were evaluated, and any changes were noted (location, colour, shape and size), and sampled for histology preparation.
The injection sites were removed and fixed in 4% phosphate buffered neutral formaldehyde in sealed plastic containers.
Each injection site was subsequently cut into three sections 0.8 cm, 1.0 cm and 1.2 cm from the square border where the injection needle was placed, and, respectively, these sections represented the injection sites and the adjacent tissue. The tissue was processed, embedded in paraffin and cut in 2-4 μm thin sections, stained with the haematoxylin and eosin (H&E), and evaluated microscopically with a light microscope. Histopathological changes were graded on a 5-level scale (Minimal (Min), Mild (Mil), Moderate (Mod), Marked (Mar) and Severe (Sev)).

Row | Structure (SMILES) | clearance ([1]; iv) [mL/day/kg] | half-life ([1]; iv) [days] | bioavailability ([1]; sc) [%] | half-life ([1]; sc) [days] | bioavailability ([2]; sc) [%] | clearance ([2]; iv) [mL/h/kg] | half-life ([2]; iv) [min] | half-life ([2]; sc) [min] | Number of injections by severity of necrosis: Mil. [3] | Number of injections by severity of necrosis: NAD (No Abnormalities Detected) [3]
1 | CC[C@H](C)[C@@H]1NC(=O)[C@H](CCCNC(=N)N)NC(=O)[C@H](CCC(=O)O)NC(=O)[C@H](CC(C)C)NC(=O)[C@H](CCCCN)NC(=O)[C@H](CC(C)C)NC(=O)CNC(=O)[C@H](Cc2ccccc2)NC(=O)[C@@H](NC(=O)CNC(=O)[C@H](CCCCN)NC(=O)[C@H](CO)NC(=O)[C@H](CC(C)C)NC(=O)CNC(=O)[C@H](CCCCN)NC(=O)[C@H](CCCCN)NC(=O)[C@H](CCC(N)=O)NC(=O)[C@H](C)NC(=O)CNC(=O)[C@H](CCCCN)NC(=O)[C@H](Cc2ccc(O)cc2)NC(=O)[C@H](CCCCN)NC(=O)[C@H](CCCNC(=N)N)NC(=O)[C@H](C)NC(=O)COCCOCCNC(=O)COCCOCCNC(=O)CC[C@H](NC(=O)CCCCCCCCCCCCCCCCC(=O)O)C(=O)O)CSSC[C@@H](C(=O)O)NC(=O)CNC(=O)[C@H](CC(C)C)NC(=O)CNC(=O)[C@H](CO)NC(=O)[C@H](CC(C)C)NC(=O)[C@H](CO)NC(=O)CNC1=O [Compound 0776] ({C18 diacid-γGlu-AEEA-AEEA}-ARKYKGAQKKGLSKGCFGLKLERIGSLSGLGC-OH; disulfide 16-32) | 20.2 | 2.5 | 13 | 2.33 | 7 | 1.34 | 1740 | 2460 |  | 
2 | CC[C@H](C)[C@@H]1NC(=O)[C@H](CCCNC(=N)N)NC(=O)[C@H](CC(=O)O)NC(=O)[C@H](CC(C)C)NC(=O)[C@H](CCCCN)NC(=O)[C@H](CC(C)C)NC(=O)CNC(=O)[C@H](Cc2ccccc2)NC(=O)[C@@H](NC(=O)CNC(=O)[C@H](CCCCN)NC(=O)[C@H](CO)NC(=O)[C@H](CC(C)C)NC(=O)CNC(=O)[C@H](CCCCN)NC(=O)[C@H](CCCCN)NC(=O)[C@H](CCC(N)=O)NC(=O)[C@H](C)NC(=O)CNC(=O)[C@H](Cc2c[nH]cn2)NC(=O)[C@H](CCC(=O)O)NC(=O)COCCOCCNC(=O)COCCOCCNC(=O)CC[C@H](NC(=O)CCCCCCCCCCCCCCCCC(=O)O)C(=O)O)CSSC[C@@H](C(=O)O)NC(=O)CNC(=O)[C@H](CC(C)C)NC(=O)CNC(=O)[C@H](CO)NC(=O)[C@H](CC(C)C)NC(=O)[C@H](CO)NC(=O)CNC1=O [Compound 1235] |  |  |  |  | 25 | 3.28 | 1200 | 1740 |  | 
3 | CC[C@H](C)[C@@H]1NC(=O)[C@H](CCCNC(=N)N)NC(=O)[C@H](CC(=O)O)NC(=O)[C@H](CC(C)C)NC(=O)[C@@H]2CCCN2C(=O)[C@H](CC(C)C)NC(=O)CNC(=O)[C@H](Cc2ccccc2)NC(=O)[C@@H](NC(=O)CNC(=O)[C@H](CCCCN)NC(=O)[C@H](CO)NC(=O)[C@@H](NC(=O)CNC(=O)[C@@H](NC(=O)[C@H](Cc2c[nH]cn2)NC(=O)[C@H](CCC(N)=O)NC(=O)[C@H](C)NC(=O)CNC(=O)[C@H](Cc2c[nH]cn2)NC(=O)[C@H](Cc2ccc(O)cc2)NC(=O)[C@H](CCCCN)NC(=O)[C@H](CCCNC(=N)N)NC(=O)[C@H](C)NC(=O)COCCOCCNC(=O)COCCOCCNC(=O)CC[C@H](NC(=O)CC[C@H](NC(=O)CC[C@H](NC(=O)CCCCCCCCCCCCCCCCC(=O)O)C(=O)O)C(=O)O)C(=O)O)[C@@H](C)O)C(C)C)CSSC[C@@H](C(=O)O)NC(=O)CNC(=O)[C@H](CC(C)C)NC(=O)CNC(=O)[C@H](CO)NC(=O)[C@H](CC(C)C)NC(=O)[C@H](CO)NC(=O)CNC1=O [Compound 1420] ({C18 diacid-γGlu-γGlu-γGlu-AEEA-AEEA}-ARKYHGAQHTGVSKGCFGLPLDRIGSLSGLGC-OH; disulfide 16-32) |  |  |  |  |  |  |  |  | 1 | 3
